Data on one compound can be found in patent publication US11834451B2 (priority 2021, dated 2023).

pEC50: −log10 of the molar value. Where two headings read alike, the source gives them in different places.

Data set [1] concerns EV-A71 Tainan/4643/1998 2C protein. Type of data set: binding.
Data set [2] is described as follows: in vitro. The note with it: human.
Data set [3] addresses CVB3 Nancy 2C protein (Coxsackievirus B3, UniProt P03313). The class given is binding.
Data set [4] concerns EV-D68. Put plainly: microbe, parasite or virus in culture. Type of data set: cell-based, enterovirus D68 (EV-D68). The note with it: Enterovirus D, EVD68, RD.
The subject of data set [5] is EV-D68, EV-A71, and CVB3. Briefly: organism not typed. The class given is cell-based.
Data set [6] relates to CVB3 Nancy virus. Put plainly: microbe, parasite or virus in culture. Type of data set: cell-based, coxsackievirus B3 (CVB3). The following applies: Enterovirus B, CVB3, Vero, read-out: EC50, Anti-CVB3 in Vero cells.
The test system of data set [7] is EV-A71. Put plainly: microbe, parasite or virus in culture. The following applies: Enterovirus A, EVA71, RD. Type of data set: cell-based, enterovirus A71 (EV-A71).

Sequence of CVB3 Nancy 2C protein (P03313 1101-1429 limits assumed): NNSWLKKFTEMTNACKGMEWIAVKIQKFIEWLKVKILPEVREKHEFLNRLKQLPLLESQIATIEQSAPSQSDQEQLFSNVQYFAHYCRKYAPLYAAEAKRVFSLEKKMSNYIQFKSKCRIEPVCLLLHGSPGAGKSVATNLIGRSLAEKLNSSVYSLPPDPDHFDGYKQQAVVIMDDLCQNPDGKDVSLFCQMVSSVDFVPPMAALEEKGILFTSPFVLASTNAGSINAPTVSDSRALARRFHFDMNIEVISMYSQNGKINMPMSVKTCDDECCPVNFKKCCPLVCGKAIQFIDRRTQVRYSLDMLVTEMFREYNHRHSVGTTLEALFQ

As for `CC(C)n1ncc2c(C(=O)NCCN(C)C)cc(C3CC3)nc21` [Compound 7d, 6-cyclopropyl-N-[2-(dimethylamino)ethyl]-1-(propan-2-yl)-1H-pyrazolo[3,4-b]pyridine-4-carboxamide], the “binding to EV-A71 2C protein” value in data set [1] was “dose-response binding”. For the same compound, the CC50 in data set [2] (CC50 (EV-A71 Tainan/4643/1998)), in data set [2] (CC50 (EV-A71 USA/CT/2016-19519)), in data set [2] (CC50 (EV-D68 US/IL/14-18952 row group)), in data set [2] (CC50 (EV-D68 US/IL/14-18956 row group)), in data set [2] (CC50 (EV-D68 US/KY/14-18953 row group)) and in data set [2] (CC50 (EV-D68 US/MO/14-18947 row group)) was 200 µM each time. Besides, the CC50 in data set [2] (CC50 (EV-D68 US/MO/14-18949 row group)) came out at 200 µM; in data set [2] (CC50, in RD cells (Anti-EV-A71)), 200 µM; in data set [2] (CC50, in RD cells (Anti-EV-D68)), 200 µM. In addition, in data set [3], the “binding to CVB3 2C protein” value is “dose-response binding”. Further, the pEC50 in data set [4] (read-out: EC50, Anti-EV-D68 US/KY/14-18953 in RD cells) is 7.00; in data set [4] (read-out: EC50, EV-D68 US/IL/14-18952 (Clade B2)), 7.40; in data set [4] (read-out: EC50, EV-D68 US/IL/14-18956 (Clade B2)) it was 7.40; in data set [4] (read-out: EC50, EV-D68 US/KY/14-18953 (Clade D)), 7.00; in data set [4] (read-out: EC50, EV-D68 US/MO/14-18947 (Clade B1)), 7.00; in data set [4] (read-out: EC50, EV-D68 US/MO/14-18949 (Clade B1)), 7.00. Besides, the pEC50 in data set [5] (RD, read-out: EC50 values range against all EV-D68 and EV-A71 strains tested) is 7.00 to 7.40; in data set [6] it was 6.70; in data set [7] (read-out: EC50, Anti-EV-A71 Tainan/4643/1998 in RD cells) it was 6.10; in data set [7] (read-out: EC50, EV-A71 A71 MP4), 7.00; in data set [7] (read-out: EC50, EV-A71 Tainan/4643/1998), 7.00; in data set [7] (read-out: EC50, EV-A71 USA/CT/2016-19519) it was 7.22. In addition, the “EC50 values in words (summary across viruses)” value in data set [5] is “nanomolar range”.
